These results are taken from patent US5843886A, “Method of treating or preventing Type 1 diabetes by oral administration of insulin” (Autoimmune, Inc., priority 1995, dated 1998).

Format in all cases: in vivo, mouse
The test system of experiment [1] is NOD mice. The experiment is described as follows: Spontaneous diabetes in NOD mice after oral feeding. From the text:
NOD (non-obese diabetic mice) were obtained from Taconic Laboratories (Germantown, Mass.) at 4 weeks of age. There were a total of 30 animals in each of the groups mentioned below at the beginning of the experiment. At 41/2 weeks of age, animals were orally administered Porcine insulin (Novo Laboratories, Danbury, Conn.). Each animal received two treatments orally twice a week until 9 weeks of age. The mice were fed either saline (control) or 10 micrograms, 100 micrograms, or 1 milligram of Porcine insulin. The animals were fed (gavaged) with an 18 gauge ball-point needle (Popper and Sons, Inc., New Hyde Park, N.Y.). Beginning at 10 weeks the animals were then fed once a week for a total of 33 weeks. Beginning at 12 weeks the urine was tested weekly for the presence of glucose using Glucosuria test tape (Eli Lilly, Indianapolis, Ind.). If an animal tested 3+ or higher on the glucose urine test, a serum sample was taken and blood glucose measured using a glucose analyzer (Beckman). If the blood glucose was 220 or higher, the animals were classified as diabetic and then sacrificed. An identical experiment to Example 1 was performed in which NOD mice (14-17 per group) were fed one homogenized pancreas derived from Lewis rats in 0.5 mls PBS. […] Nonetheless, the effect is not as dramatic and complete as that seen in the animals fed insulin.

Experiment [2] has as its system NOD mice. The experiment is described as follows: Glucose post oral insulin in fasting 7 week NOD mice. Particulars: for blood glucose after feeding: measured over 24 hours. As to the method: In order to determine whether any endocrinologic (i.e. direct lowering of blood sugar) effects occurred following the feeding of insulin, 7 week old NOD mice (5 mice per group) were fed 1 mg of porcine insulin or 1 mg of myelin basic protein (obtained from Pel Freez, Rogers, AR) as a control protein. Blood glucose was then measured over the next 24 hour period. As a positive control, a separate group of animals were injected subcutaneously with 20 micrograms of Porcine insulin. All animals were kept in the fasting state.

For experiment [3], the system named is NOD mice. The experiment is described as follows: Insulitis in insulin-fed NOD mice (preliminary experiments, data not shown). The note with it: fed 1 mg, compared with PBS-fed NOD mice. The text has this:
Therefore, oral administration of insulin to NOD mice appeared to be affecting the infiltration of immune system cells into the pancreas and thus halting disease progression by preserving beta cell function.

In experiment [4] the test system is NOD mice. The experiment is described as follows: Aerosol administration of insulin on diabetes in NOD mice (Example 4). Particulars: 0 to 1 mg in aerosol form by nebulizer. As to the method: Insulin (0 to 1 mg as in Examples 1 and 2) will be administered to NOD mice as described above in Examples 1 and 2 except in aerosol form by nebulizer.
Experiment [5] relates to NOD mice. The experiment is described as follows: Treatment of initial stages of diabetes in hyperglycemic NOD mice (Example 5). Particulars: 0 to 1 mg, oral and aerosol, start at weeks 12-20 of age. The method, then:
Insulin (0 to 1 mg as in Examples 1 and 2) will be administered to NOD mice which are suffering from hyperglycemia in an oral and aerosol form. The treatments will begin by weeks 12-20 of age, by which the serum glucose levels are at hyperglycemic concentrations in a certain percentage of animals prior to onset of diabetes.

Setting [6] is: 20 micrograms injected subcutaneously, fasting 7 week old mice.
Setting [7] is: fed 1 mg orally, fasting 7 week old mice.

Several values for one entry are separate records, joined by “and”; a condition that tells them apart may be missing. Equal entries are not always repeated. Entries after “also recorded” stand apart in the source; their conditions may differ.

Consider Porcine insulin, for which the incidence of diabetes result with NOD mice [1] (all oral doses tested (10 micrograms, 100 micrograms, 1 mg)) is listed as “lower incidence of diabetes; also recorded: reduced the numbers of these mice which subsequently went on to develop diabetes”. For the same substance, the development of diabetes entry with NOD mice [1] (fed 1 mg orally (gavage), twice a week until 9 weeks of age, then once a week, diabetic = blood glucose 220 or higher) was “none of the mice went on to develop diabetes; also recorded: no diabetes developed; also recorded: None of the animals developed diabetes”. Moreover, in the experiment with NOD mice [1] (fed 1 mg, individual non-diabetic animals), the “blood sugar on 10 representative animals” value came to 130 mg/dL. Further, the development of diabetes entry with NOD mice [1] (fed 10 micrograms orally, same schedule) is “diabetes developed”. For the same substance, the “blood sugar in animals which developed diabetes” value in the experiment with NOD mice [1] (fed 10 micrograms, individual animals) is 330 mg/dL and 420 mg/dL and 520 mg/dL. Also, the development of diabetes result in the experiment on NOD mice [1] (fed 100 micrograms orally, same schedule) is reported as “diabetes developed”. In addition, in the experiment on NOD mice [1] (fed 100 micrograms, individual animals), the “blood sugar in animals that became diabetic” value was 500 mg/dL and 290 mg/dL and 600 mg/dL and 450 mg/dL. The “treated animals that failed to develop diabetes” value in the experiment on NOD mice [1] (highest oral dose (1 mg)) is 100%. Also, in the experiment on NOD mice [2] (setting [6]), the “decrease in blood glucose level” value is reported as “approximately 80 mg %” and the “period over which the glucose decrease persisted” value worked out at 4 h. For the same substance, in the experiment on NOD mice [2] (fed 1 mg orally), the “endocrinologic (metabolic) effects” value is recorded as “no endocrinologic (metabolic) effects”. Moreover, in the experiment with NOD mice [2] (setting [7]), the “blood glucose after feeding” value was “no drop in the blood glucose”. The “inflammatory immune system cells surrounding the pancreas (insulitis)” value in the experiment on NOD mice [3] is given as “fewer inflammatory immune system cells surrounding the pancreas”. Moreover, the “prevention of the manifestation of symptoms (hyperglycemia) of Type 1 diabetes” value with NOD mice [4] is reported as “effective in preventing the manifestation of symptoms”. In the experiment with NOD mice [5], the beta cell function entry is reported as “preservation of beta cell function” and the serum glucose concentrations entry was “reduction in serum glucose concentrations to near normal levels”.

For myelin basic protein, in the experiment with NOD mice [2] (setting [7]), the “blood glucose after feeding” value is on record as “no drop in the blood glucose”.
